Measured values reported in ChEMBL document CHEMBL4130462, “Natural isoflavone biochanin A as a template for the design of new and potent 3-phenylquinolone efflux inhibitors against Mycobacterium avium” (Eur J Med Chem, 2017).
In brackets after ≈: the same amount, converted by molar mass.

Tests used:
Mycobacterium avium [1] = conditions: isolate MAV1
Description: Inhibition of multidrug resistance efflux pump in Mycobacterium avium isolate MAV1 assessed as potentiation of ofloxacin-induced antibacterial activity by measuring ofloxacin MIC at 1/2 MIC incubated for 3 days by MTT assay (Rvb = 4 ug/ml)

Mycobacterium avium [2] = conditions: isolate MAV2
Mycobacterium avium [3] = conditions: isolate MAV1; remark: listed apart in the source
Mycobacterium avium [4] = conditions: isolate MAV3
Mycobacterium avium [5] = conditions: isolate MAV4
Mycobacterium avium [6] = conditions: 104 mc'2 3
[7] = test system: Mycobacterium avium subsp. avium ATCC 25291
Description: Inhibition of multidrug resistance efflux pump in Mycobacterium avium ATCC 25291 assessed as potentiation of ethidium bromide-induced antibacterial activity by measuring ethidium bromide MIC at 1/2 MIC incubated for 3 days by MTT assay (Rvb = 50 ug/ml)

Mycobacterium avium [8] = conditions: 104
Mycobacterium avium [9] = conditions: isolate MAV1; remark: listed apart in the source
Mycobacterium avium [10] = conditions: isolate MAV2; remark: listed apart in the source
Mycobacterium avium [11] = conditions: 104 mc'2 4
Mycobacterium avium [12] = conditions: isolate MAV1; remark: listed apart in the source
Mycobacterium avium [13] = conditions: 104 mc'2 3; remark: listed apart in the source
[14] = test system: Mycobacterium avium subsp. avium ATCC 25291; remark: listed apart in the source
Mycobacterium avium [15] = conditions: isolate MAV4; remark: listed apart in the source
Mycobacterium avium [16] = conditions: 104 mc'2 4; remark: listed apart in the source
[17] = Safety index, ratio of CC50 for test compound to CC50 for thioridazine for cytotoxicity in human monocyte-derived macrophages; format: cell-based, Macrophage cell line
[18] = test system: Mycobacterium avium subsp. avium ATCC 25291; remark: listed apart in the source
Mycobacterium avium [19] = conditions: 104 mc'2 4; remark: listed apart in the source
Mycobacterium avium [20] = conditions: 104 mc'2 3; remark: listed apart in the source
Mycobacterium avium [21] = conditions: isolate MAV1; remark: listed apart in the source
[22] = test system: Mycobacterium avium subsp. avium ATCC 25291; remark: listed apart in the source
Mycobacterium avium [23] = conditions: isolate MAV3; remark: listed apart in the source
[24] = test system: Mycolicibacterium smegmatis; test: Antimycobacterial activity against Mycobacterium smegmatis str. MC2 155 assessed as reduction in bacterial viability incubated for 3 days by MTT assay; format: organism-based; conditions: 72 h
Mycobacterium avium [25] = conditions: 104; remark: listed apart in the source
Mycobacterium avium [26] = conditions: 104 mc'2 3; remark: listed apart in the source
Mycobacterium avium [27] = conditions: isolate MAV2; remark: listed apart in the source
Description: Inhibition of multidrug resistance efflux pump in Mycobacterium avium isolate MAV2 assessed as potentiation of clarithromycin -induced antibacterial activity by measuring clarithromycin MIC at 1/4 MIC incubated for 3 days by MTT assay (Rvb = >1024 ug/ml)

Mycobacterium avium [28] = conditions: isolate MAV4; remark: listed apart in the source
Mycobacterium avium [29] = conditions: isolate MAV4; remark: listed apart in the source
[30] = test system: Mycobacterium avium subsp. avium ATCC 25291; remark: listed apart in the source
Mycobacterium avium [31] = conditions: 104 mc'2 3; remark: listed apart in the source
Mycobacterium avium [32] = conditions: isolate MAV1; remark: listed apart in the source
Mycobacterium avium [33] = conditions: 104; remark: listed apart in the source
Mycobacterium avium [34] = conditions: isolate MAV1; remark: listed apart in the source
Description: Inhibition of multidrug resistance efflux pump in Mycobacterium avium isolate MAV1 assessed as potentiation of ofloxacin-induced antibacterial activity by measuring ofloxacin MIC at 1/4 MIC incubated for 3 days by MTT assay (Rvb = 4 ug/ml)

Mycobacterium avium [35] = conditions: isolate MAV2; remark: listed apart in the source
Mycobacterium avium [36] = conditions: in vivo, 72 h
Description: Antimycobacterial activity against Mycobacterium avium 104 mc'2 3 assessed as reduction in bacterial viability incubated for 3 days by MTT assay

Mycobacterium avium [37] = conditions: 104 mc'2 4; remark: listed apart in the source
Mycobacterium avium [38] = conditions: isolate MAV3; remark: listed apart in the source
[39] = test system: Mycobacterium avium subsp. avium ATCC 25291; remark: listed apart in the source
Mycobacterium avium [40] = conditions: isolate MAV1; remark: listed apart in the source
Mycobacterium avium [41] = conditions: 104 mc'2 3; remark: listed apart in the source
Mycobacterium avium [42] = conditions: 104; remark: listed apart in the source
Description: Inhibition of multidrug resistance efflux pump in Mycobacterium avium 104 assessed as potentiation of clarithromycin -induced antibacterial activity by measuring clarithromycin MIC at 1/2 MIC incubated for 3 days by MTT assay

Mycobacterium avium [43] = conditions: isolate MAV4; remark: listed apart in the source
Mycobacterium avium [44] = conditions: 104 mc'2 4; remark: listed apart in the source

For `CCCOc1ccc(-c2cn(CCN3CCCCCC3)c3ccccc3c2=O)cc1`, the MIC (Mycobacterium avium [1]) was under 0.0625 µg/mL, the MIC (Mycobacterium avium [2]) was 32 µg/mL (≈ 79.1 µM) and the MIC (Mycobacterium avium [3]) was under 0.125 µg/mL. It also gave an MIC (Mycobacterium avium [4]) of 4 µg/mL (≈ 9.89 µM), an MIC (Mycobacterium avium [5]) of under 0.39 µg/mL and an MIC (Mycobacterium avium [6]) of 2 µg/mL (≈ 4.94 µM). The MIC [7] was under 0.39 µg/mL, the MIC (Mycobacterium avium [8]) was under 4 µg/mL and the MIC (Mycobacterium avium [9]) was under 4 µg/mL. It also gave an MIC (Mycobacterium avium [10]) of under 0.195 µg/mL, an MIC (Mycobacterium avium [11]) of 128 µg/mL (≈ 316 µM) and an MIC (Mycobacterium avium [12]) of under 4 µg/mL. It also gave an MIC (Mycobacterium avium [13]) of under 64 µg/mL, an MIC [14] of 16 µg/mL (≈ 39.5 µM) and an MIC (Mycobacterium avium [15]) of 16 µg/mL (≈ 39.5 µM). For the same compound, the MIC (Mycobacterium avium [16]) was 0.39 µg/mL (≈ 0.964 µM), the selectivity ratio [17] was 4 to 6 and the MIC [18] was 8 µg/mL (≈ 19.8 µM). The MIC (Mycobacterium avium [19]) was under 4 µg/mL, the MIC (Mycobacterium avium [20]) was under 0.195 µg/mL and the MIC (Mycobacterium avium [21]) was 1.56 µg/mL (≈ 3.86 µM). For the same compound, the MIC [22] was 8 µg/mL (≈ 19.8 µM), the MIC (Mycobacterium avium [23]) was 0.5 µg/mL (≈ 1.24 µM) and the MIC [24] was 128 µg/mL (≈ 316 µM). It also gave an MIC (Mycobacterium avium [25]) of 1 µg/mL (≈ 2.47 µM), an MIC (Mycobacterium avium [26]) of 4 µg/mL (≈ 9.89 µM) and an MIC (Mycobacterium avium [27]) of 256 µg/mL (≈ 633 µM). It also gave an MIC (Mycobacterium avium [28]) of under 4 µg/mL, an MIC (Mycobacterium avium [29]) of under 0.25 µg/mL and an MIC [30] of under 1 µg/mL. It also gave an MIC (Mycobacterium avium [31]) of 128 µg/mL (≈ 316 µM), an MIC (Mycobacterium avium [32]) of under 0.125 µg/mL and an MIC (Mycobacterium avium [33]) of 4 µg/mL (≈ 9.89 µM). The MIC (Mycobacterium avium [34]) was 2 µg/mL (≈ 4.94 µM), the MIC (Mycobacterium avium [35]) was 3.12 µg/mL (≈ 7.72 µM) and the MIC (Mycobacterium avium [36]) was 256 µg/mL (≈ 633 µM). It also gave an MIC (Mycobacterium avium [37]) of under 0.125 µg/mL, an MIC (Mycobacterium avium [38]) of 12.5 µg/mL (≈ 30.9 µM) and an MIC [39] of under 0.5 µg/mL. The MIC (Mycobacterium avium [40]) was under 4 µg/mL, the MIC (Mycobacterium avium [41]) was under 4 µg/mL and the MIC (Mycobacterium avium [42]) was under 0.125 µg/mL. For the same compound, the MIC (Mycobacterium avium [43]) was 8 µg/mL (≈ 19.8 µM) and the MIC (Mycobacterium avium [44]) was under 0.125 µg/mL.

`CSc1ccc2c(c1)N(CCC1CCCCN1C)c1ccccc1S2` (stereo unspecified) [THIORIDAZINE] gave an MIC (Mycobacterium avium [1]) of under 0.0625 µg/mL, an MIC (Mycobacterium avium [2]) of 512 µg/mL (≈ 1380 µM) and an MIC (Mycobacterium avium [3]) of under 0.031 µg/mL. It also gave an MIC (Mycobacterium avium [4]) of 64 µg/mL (≈ 173 µM), an MIC (Mycobacterium avium [5]) of 12.5 µg/mL (≈ 33.7 µM) and an MIC (Mycobacterium avium [6]) of 4 µg/mL (≈ 10.8 µM). For the same compound, the MIC [7] was 6.25 µg/mL (≈ 16.9 µM), the MIC (Mycobacterium avium [8]) was 64 µg/mL (≈ 173 µM) and the MIC (Mycobacterium avium [9]) was under 4 µg/mL. The MIC (Mycobacterium avium [10]) was 6.25 µg/mL (≈ 16.9 µM), the MIC (Mycobacterium avium [11]) was over 512 µg/mL and the MIC (Mycobacterium avium [12]) was under 4 µg/mL. It also gave an MIC (Mycobacterium avium [13]) of over 512 µg/mL, an MIC [14] of 32 µg/mL (≈ 86.3 µM) and an MIC (Mycobacterium avium [15]) of 128 µg/mL (≈ 345 µM). The MIC (Mycobacterium avium [16]) was 12.5 µg/mL (≈ 33.7 µM), the MIC [18] was 32 µg/mL (≈ 86.3 µM) and the MIC (Mycobacterium avium [19]) was 128 µg/mL (≈ 345 µM). It also gave an MIC (Mycobacterium avium [20]) of 1.56 µg/mL (≈ 4.21 µM), an MIC (Mycobacterium avium [21]) of 0.78 µg/mL (≈ 2.1 µM) and an MIC [22] of 32 µg/mL (≈ 86.3 µM). For the same compound, the MIC (Mycobacterium avium [23]) was 2 µg/mL (≈ 5.4 µM), the MIC [24] was 30 µg/mL (≈ 81 µM) and the MIC (Mycobacterium avium [25]) was 4 µg/mL (≈ 10.8 µM). For the same compound, the MIC (Mycobacterium avium [26]) was 8 µg/mL (≈ 21.6 µM), the MIC (Mycobacterium avium [27]) was over 512 µg/mL and the MIC (Mycobacterium avium [28]) was 64 µg/mL (≈ 173 µM). It also gave an MIC (Mycobacterium avium [29]) of 4 µg/mL (≈ 10.8 µM), an MIC [30] of 4 µg/mL (≈ 10.8 µM) and an MIC (Mycobacterium avium [31]) of over 512 µg/mL. It also gave an MIC (Mycobacterium avium [32]) of 0.0625 µg/mL (≈ 0.169 µM), an MIC (Mycobacterium avium [33]) of 4 µg/mL (≈ 10.8 µM) and an MIC (Mycobacterium avium [34]) of 1 µg/mL (≈ 2.7 µM). The MIC (Mycobacterium avium [35]) was 12.5 µg/mL (≈ 33.7 µM), the MIC (Mycobacterium avium [36]) was 30 µg/mL (≈ 81 µM) and the MIC (Mycobacterium avium [37]) was 0.25 µg/mL (≈ 0.675 µM). It also gave an MIC (Mycobacterium avium [38]) of 12.5 µg/mL (≈ 33.7 µM), an MIC [39] of 32 µg/mL (≈ 86.3 µM) and an MIC (Mycobacterium avium [40]) of 16 µg/mL (≈ 43.2 µM). It also gave an MIC (Mycobacterium avium [41]) of under 4 µg/mL, an MIC (Mycobacterium avium [42]) of 2 µg/mL (≈ 5.4 µM) and an MIC (Mycobacterium avium [43]) of 16 µg/mL (≈ 43.2 µM). The MIC (Mycobacterium avium [44]) was 0.5 µg/mL (≈ 1.35 µM).

Compound `CCCOc1ccc(-c2cn(CCN3CCCCC3)c3ccccc3c2=O)cc1` has an MIC (Mycobacterium avium [1]) of under 0.0625 µg/mL, an MIC (Mycobacterium avium [2]) of 256 µg/mL (≈ 656 µM) and an MIC (Mycobacterium avium [3]) of under 0.125 µg/mL. It also gave an MIC (Mycobacterium avium [4]) of 8 µg/mL (≈ 20.5 µM), an MIC (Mycobacterium avium [5]) of under 0.39 µg/mL and an MIC (Mycobacterium avium [6]) of 2 µg/mL (≈ 5.12 µM). For the same compound, the MIC [7] was under 0.39 µg/mL, the MIC (Mycobacterium avium [8]) was under 0.125 µg/mL and the MIC (Mycobacterium avium [9]) was under 4 µg/mL. For the same compound, the MIC (Mycobacterium avium [10]) was 3.12 µg/mL (≈ 8 µM), the MIC (Mycobacterium avium [11]) was 512 µg/mL (≈ 1310 µM) and the MIC (Mycobacterium avium [12]) was under 4 µg/mL. It also gave an MIC (Mycobacterium avium [13]) of 512 µg/mL (≈ 1310 µM), an MIC [14] of 32 µg/mL (≈ 81.9 µM) and an MIC (Mycobacterium avium [15]) of 8 µg/mL (≈ 20.5 µM). For the same compound, the MIC (Mycobacterium avium [16]) was 3.12 µg/mL (≈ 8 µM), the selectivity ratio [17] was 4 to 6 and the MIC [18] was 8 µg/mL (≈ 20.5 µM). The MIC (Mycobacterium avium [19]) was under 4 µg/mL, the MIC (Mycobacterium avium [20]) was under 0.195 µg/mL and the MIC (Mycobacterium avium [21]) was 1.56 µg/mL (≈ 3.99 µM). It also gave an MIC [22] of 8 µg/mL (≈ 20.5 µM), an MIC (Mycobacterium avium [23]) of 1 µg/mL (≈ 2.56 µM) and an MIC [24] of 256 µg/mL (≈ 656 µM). For the same compound, the MIC (Mycobacterium avium [25]) was under 0.125 µg/mL, the MIC (Mycobacterium avium [26]) was 8 µg/mL (≈ 20.5 µM) and the MIC (Mycobacterium avium [27]) was 512 µg/mL (≈ 1310 µM). The MIC (Mycobacterium avium [28]) was under 4 µg/mL, the MIC (Mycobacterium avium [29]) was under 0.25 µg/mL and the MIC [30] was under 1 µg/mL. For the same compound, the MIC (Mycobacterium avium [31]) was 128 µg/mL (≈ 328 µM), the MIC (Mycobacterium avium [32]) was 0.25 µg/mL (≈ 0.64 µM) and the MIC (Mycobacterium avium [33]) was under 0.125 µg/mL. It also gave an MIC (Mycobacterium avium [34]) of 1 µg/mL (≈ 2.56 µM), an MIC (Mycobacterium avium [35]) of 6.25 µg/mL (≈ 16 µM) and an MIC (Mycobacterium avium [36]) of 256 µg/mL (≈ 656 µM). The MIC (Mycobacterium avium [37]) was under 0.125 µg/mL, the MIC (Mycobacterium avium [38]) was 12.5 µg/mL (≈ 32 µM) and the MIC [39] was under 0.5 µg/mL. For the same compound, the MIC (Mycobacterium avium [40]) was under 4 µg/mL, the MIC (Mycobacterium avium [41]) was under 4 µg/mL and the MIC (Mycobacterium avium [42]) was under 0.125 µg/mL. For the same compound, the MIC (Mycobacterium avium [43]) was 4 µg/mL (≈ 10.2 µM) and the MIC (Mycobacterium avium [44]) was under 0.125 µg/mL.
